Legend:
Assay type in all cases: cell-based
[1] = system: human iPS cells (TkDN4-M cell line); test: Cell aggregation assay: suspension (swirling) culture of human iPS cells, phase contrast microscopy; details: Day 1 of culture; for cell aggregation suppression (aggregate formation observed by microscopy): compared to only Y-27632
Protocol: TkDN4-M cell lines (Institute of Medical Science, The University of Tokyo) were used as human iPS cells. Human iPS cells were seeded on cell culture dishes coated with Vitronectin (Thermo Fisher Scientific Co., Ltd.) and subjected to a maintenance culture using Essential 8™ (Thermo Fisher Scientific Co., Ltd.) as the culture medium. Accutase (Thermo Fisher Scientific Co., Ltd.) was used as a cell detachment agent during passage. In addition, when the cells were seeded, Y-27632 (Wako Pure Chemical Industries, Ltd.) at a concentration of 10 μM was added to a culture medium. The culture medium was changed every day. For experiments, human iPS cells (the number of passage was 50 or less) were used.
The resulting cells were suspended in Essential 8™ culture medium comprising a final concentration of 5 mg/mL of BSA (Wako Pure Chemical Industries, Ltd.) and 10 μM of Y-27632 (Wako Pure Chemical Industries, Ltd.), and a portion thereof was stained with trypan blue and the number of cells was counted. The cell suspension was prepared so as to contain 2×10^5 cells per mL. […] Then the cells were seeded at a ratio of 1.3 mL/well in a 12-well plate for suspension culture (Sumitomo Bakelite Co., Ltd.). The cell-seeded plate was subjected to a swirling culture on a rotary shaker (OPTIMA, Inc.) at a speed of 90 rpm along the horizontal plane to draw a circle with a swirling width (diameter) of 25 mm, and cells were cultured in suspension under a condition at 5% CO2 and 37° C. At the next day after the start of culture (Day 1 of culture), images were obtained by phase contrast microscopy. A control test was conducted using a cell suspension prepared under the same condition as above except that Y-27632 and TRAP-6 were not added.
(§1) A cell suspension was prepared in the same manner as in Example 2, and separately, the cell aggregation suppressor was adjusted so that the final concentration of TRAP-6 (same as above) was 3.74 mg/mL (10 mM). Then the adjusted cell aggregation suppressor was added to the cell suspension so that the final concentration of the agonist of a thrombin receptor was 5 μM. Then the cells were seeded at a ratio of 4 mL/well in a 6-well plate for suspension culture (Sumitomo Bakelite Co., Ltd.). The cell-seeded plate was subjected to a swirling culture on a rotary shaker (OPTIMA, Inc.) at a speed of 75 rpm along the horizontal plane to draw a circle with a swirling width (diameter) of 25 mm, and cells were cultured in suspension under a condition at 5% CO2 and 37° C. After the next day of culture (Day 1 of culture), the culture medium was exchanged daily for fresh medium (Essential 8™ culture medium containing BSA (Wako Pure Chemical Industries, Ltd.) at a final concentration of 5 mg/mL), and the culture continued until Day 5 of culture. A control test was conducted using a cell suspension prepared under the same condition as described above except that TRAP-6 was not added. Images were obtained by phase contrast microscopy every day during culture. The concentration of glucose contained in the culture supernatant collected at the time of culture medium exchange was measured with biosensor BF-5iD (Prince Measuring Equipment Co., Ltd.) to calculate glucose consumption.
Cell suspensions were prepared in the same manner as in Example 2 using human iPS cells cultured with the protocol of Example 1, and instead of TRAP-6, a PAR-1 agonist (Proteinase Activated Receptor-1; PAR-1 agonist, ANASPEC, AS-62937, a C-terminal amidated peptide consisting of the amino acid sequence of TFLLRN (SEQ ID NO: 8)) was added so that a final concentration thereof was 32.8 μM or S1P (sphingosine-1-phosphate; Cayman, 62570) (positive control) was added so that the final concentration thereof was 0.8 μg/mL). Then, suspension culture and image acquisition were performed in the same manner as in Example 2.

[2] = system: human iPS cells (TkDN4-M cell line); test: Percentage of cells positive for undifferentiation markers (flow cytometry); details: Day 5 of culture
Protocol: as §1
In addition, at Day 5 of culture, cell aggregates were collected, dispersed with Accutase, and then suspended in Essential 8™ culture medium containing 5 mg/mL BSA. A portion of this cell suspension was stained with trypan blue and the number of cells was counted. After the above cell suspensions were centrifuged at 300 g for 3 minutes, the supernatant was then removed, and the cells were washed with PBS (phosphate buffered saline). Next, the cells were fixed with 4% paraformaldehyde (Wako Pure Chemical Industries, Ltd.) at room temperature for 20 minutes, then washed 3 times with PBS. After cells were resuspended with 300 μL of PBS, 3 mL of cold methanol was added while stirring with voltex, and permeabilized at −20° C. overnight or more. After 3 washes with 3% FBS (fetal bovine serum)/PBS, cells were resuspended with 3% FBS (fetal bovine serum)/PBS and blocked at room temperature for 30 minutes to 1 hour. Subsequently, the cells were stained with fluorescently labeled anti-SOX2 antibodies (Cat. No. 656110, BioLegend, Inc.) and fluorescently labeled anti-OCT4 antibodies (Cat. No. 653703, BioLegend, Inc.) and fluorescently labeled anti-Nanog antibodies (Cat. No. 674010, BioLegend, Inc.) at 4° C. for 30 minutes to 1 hour. […] The resulting cells were analyzed on FACSVerse. […]

[3] = system: human iPS cells (TkDN4-M cell line); test: Size distribution of cell aggregates (width of widest portion in micrograph); details: TRAP-6 5 μM, Day 1 of culture
Protocol: as §1
For cells cultured in suspension in the presence of TRAP-6 according to Example 3, 210 cell aggregates in an image acquired at Day 1 of culture were observed and compared using a micrograph scale, the width of the widest portion (referred to as “ϕ”) of each cell aggregate was measured, then distribution thereof was examined, and the average±standard deviation was calculated.

[4] = system: human iPS cells (TkDN4-M cell line); test: Glucose consumption during suspension culture of human iPS cells; details: TRAP-6 5 μM on Day 1, then TRAP-6-free medium, Day 1 to Day 5, compared to TRAP-6 non-added condition
Protocol: as §1, with “A control test was conducted using a cell suspension prepared under the same condition as described above except that TRAP-6 was not added. Images were obtained by phase contrast microscopy every day during culture.” left out

[5] = system: human iPS cells (TkDN4-M cell line); test: Cell yield at Day 5 of suspension culture (trypan blue count); details: TRAP-6 5 μM on Day 1, then TRAP-6-free medium; seeded 8×10^5 cells/well
Protocol: as §1, with “After the next day of culture (Day 1 of culture), the culture medium was exchanged daily for fresh medium (Essential 8™ culture medium containing BSA (Wako Pure Chemical Industries, Ltd.) at a final concentration of 5 mg/mL), and the culture continued until Day 5 of culture. A control test was conducted using a cell suspension prepared under the same condition as described above except that TRAP-6 was not added. Images were obtained by phase contrast microscopy every day during culture.” left out
Cell yields were also measured at Day 5 of culture. […] After that, the number of cells was counted using a hemocytometer to determine the cell yield.

[6] = TRAP-6 5 μM on Day 1, then TRAP-6-free medium

Compound: CCCCCCCCCCCCC/C=C/[C@@H](O)[C@@H](N)COP(=O)(O)O [S1P, sphingosine-1-phosphate]
- cell aggregation suppression (aggregate formation observed by microscopy) ([1]; S1P 0.8 μg/mL (positive control) with Y-27632 10 μM): aggregation was suppressed and smaller aggregates were formed

Compound: C[C@@H](N)[C@H]1CC[C@H](C(=O)Nc2ccncc2)CC1 [Y-27632, 4-[(1R)-1-aminoethyl]-N-pyridin-4-ylcyclohexane-1-carboxamide]
- aggregate formation observed by microscopy ([1]; Y-27632 10 μM alone, compared to control without Y-27632): aggregates were formed

Compound: Thrombin Receptor Activator for Peptide 6 [TRAP-6]
- percentage of cells positive for Nanog [2, 6]: ≥ 99%
- percentage of cells positive for OCT4 [2, 6]: ≥ 98%
- percentage of cells positive for SOX2 [2, 6]: ≥ 99%
- undifferentiated state of human iPS cell aggregates ([2]; aggregates formed by addition of Y-27632 and TRAP-6 (5 μM)): remained undifferentiated
- percentage of cell aggregates with size (diameter) 40 μm or more and 300 μm or less [3]: 100%
- percentage of cell aggregates with size (diameter) 60 μm or more and 300 μm or less [3]: 100%
- percentage of cell aggregates with size (diameter) 80 μm or more and 300 μm or less [3]: 98.0%
- percentage of cell aggregates with size (diameter) 100 μm or more and 300 μm or less [3]: 97.0%
- average±standard deviation of cell aggregate size (diameter) ([3]; 210 cell aggregates): 167.8±35.3 μm
- Number of cell aggregates by size ([3]; size range 40- μm): 0
- Percentage of cell aggregates by size ([3]; size range 40- μm): 0%
- Number of cell aggregates by size ([3]; size range 60- μm): 4
- Percentage of cell aggregates by size ([3]; size range 60- μm): 2%
- Number of cell aggregates by size ([3]; size range 80- μm): 2
- Percentage of cell aggregates by size ([3]; size range 80- μm): 1%
- Number of cell aggregates by size ([3]; size range 100- μm): 5
- Percentage of cell aggregates by size ([3]; size range 100- μm): 2%
- Number of cell aggregates by size ([3]; size range 120- μm): 25
- Percentage of cell aggregates by size ([3]; size range 120- μm): 12%
- Number of cell aggregates by size ([3]; size range 140- μm): 58
- Percentage of cell aggregates by size ([3]; size range 140- μm): 28%
- Number of cell aggregates by size ([3]; size range 160- μm): 56
- Percentage of cell aggregates by size ([3]; size range 160- μm): 27%
- Number of cell aggregates by size ([3]; size range 180- μm): 31
- Percentage of cell aggregates by size ([3]; size range 180- μm): 15%
- Number of cell aggregates by size ([3]; size range 200- μm): 13
- Percentage of cell aggregates by size ([3]; size range 200- μm): 6%
- Number of cell aggregates by size ([3]; size range 220- μm): 8
- Percentage of cell aggregates by size ([3]; size range 220- μm): 4%
- Number of cell aggregates by size ([3]; size range 240- μm): 3
- Percentage of cell aggregates by size ([3]; size range 240- μm): 1%
- Number of cell aggregates by size ([3]; size range 260- μm): 4
- Percentage of cell aggregates by size ([3]; size range 260- μm): 2%
- Number of cell aggregates by size ([3]; size range 280- μm): 1
- Percentage of cell aggregates by size ([3]; size range 280- μm): 0%
- Number of cell aggregates by size ([3]; size range 300- μm): 0
- Percentage of cell aggregates by size ([3]; size range 300- μm): 0%
- glucose consumption [4]: greater than that under the TRAP-6 non-added condition
- proliferation of seeded cells (cell yield) at Day 5 of culture [5]: 8.5 fold
- cell aggregation suppression (aggregate formation observed by microscopy) ([1]; TRAP-6 2 μM with Y-27632 10 μM): aggregation was suppressed and smaller aggregates were formed
- aggregate size observed by microscopy ([1]; TRAP-6 5 μM with Y-27632 10 μM, 6-well plate, 75 rpm, compared to no TRAP-6): formation of smaller aggregates
- cell aggregation suppression (aggregate formation observed by microscopy) ([1]; TRAP-6 10 μM with Y-27632 10 μM): aggregation was suppressed and smaller aggregates were formed
- cell aggregation suppression (aggregate formation observed by microscopy) ([1]; TRAP-6 50 μM with Y-27632 10 μM): aggregation was suppressed and smaller aggregates were formed

Reference: patent US20210062139A1, “CELL AGGREGATION SUPPRESSOR” (KANEKA CORPORATION, priority 2017, published 2021)
